Assay [1] deals with Microbotryum violaceum. The assay can be described thus: Antimicrobial activity against Microbotryum violaceum at 25 ug. Conditions: read-out: IZ. Format: functional.
Assay [2] relates to Microbotryum violaceum. The assay can be described thus: Antimicrobial activity against Microbotryum violaceum at 10 ug. The assay is classed as functional. Conditions: read-out: IZ.
Assay [3] addresses Tyrosine-protein kinase Lck (Homo sapiens) (UniProt P06239). Briefly: Inhibition of p56 LCK at 200 ug/ml. Set-up: scale not given: the % may be the effect or the level left.
The subject of assay [4] is Aspergillus pseudoglaucus. The assay can be described thus: Antimicrobial activity against Eurotium repens at 10 ug. Conditions: read-out: IZ. The assay is classed as functional.
Assay [5] concerns Aspergillus pseudoglaucus. Briefly: Antimicrobial activity against Eurotium repens at 20 ug. The assay is classed as functional. Conditions: read-out: IZ.
The subject of assay [6] is Microbotryum violaceum. The assay can be described thus: Antimicrobial activity against Microbotryum violaceum at 20 ug. Format: functional. Conditions: read-out: IZ.

Tyrosine-protein kinase Lck (Homo sapiens), sequence (P06239 2-509 limits assumed): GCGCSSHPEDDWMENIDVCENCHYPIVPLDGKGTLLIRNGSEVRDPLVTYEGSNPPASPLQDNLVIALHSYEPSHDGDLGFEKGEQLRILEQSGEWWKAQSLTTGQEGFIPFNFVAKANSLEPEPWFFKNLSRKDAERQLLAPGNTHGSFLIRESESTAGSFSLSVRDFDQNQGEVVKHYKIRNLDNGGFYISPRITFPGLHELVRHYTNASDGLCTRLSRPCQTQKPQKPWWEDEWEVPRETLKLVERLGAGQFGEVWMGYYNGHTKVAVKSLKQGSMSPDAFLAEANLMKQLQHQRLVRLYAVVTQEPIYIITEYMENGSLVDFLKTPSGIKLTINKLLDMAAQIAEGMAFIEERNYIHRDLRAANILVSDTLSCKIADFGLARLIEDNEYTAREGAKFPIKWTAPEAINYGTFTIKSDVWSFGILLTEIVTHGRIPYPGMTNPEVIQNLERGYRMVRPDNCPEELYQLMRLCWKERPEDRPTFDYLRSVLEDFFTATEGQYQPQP

As for `CC(=O)O[C@@H]1[C@H](O)[C@H]2[C@@H](CC=C3C[C@@H](O)CC[C@@]32C)[C@@H]2CC(O)[C@H]([C@H](C)CC[C@H](C)C(C)C)[C@@]12C` (some centres undefined), the zone of inhibition at 25 µg/disc in assay [1] turned out to be 1 mm.
For `CC(=O)O[C@@H]1C[C@H]2[C@@H](CC=C3C[C@@H](O)CC[C@@]32C)[C@@H]2CC[C@H]([C@H](C)CC(O)[C@H](C)C(C)C)[C@@]12C` (some centres undefined), the zone of inhibition at 10 µg/disc in assay [2] was 3 mm. Besides, the Activity in assay [3] worked out at 42%.
As for `CC(=O)O[C@@H]1[C@H]2[C@@H](CC=C3C[C@@H](O)CC[C@@]32C)[C@@H]2CC(O)[C@H]([C@H](C)CC[C@H](C)C(C)C)[C@@]2(C)[C@@H]1O` (some centres undefined), the zone of inhibition at 10 µg/disc in assay [2] is 3 mm; in assay [4], 2 mm. The same compound displayed an Activity in assay [3] of 47%.
On to `CC(=O)O[C@@H]1C[C@H]2[C@@H]([C@H](O)C=C3C[C@@H](O)CC[C@@]32CO)[C@@H]2CC[C@H]([C@H](C)[C@H]3C[C@]3(C)[C@H](C)C(C)C)[C@@]12C`, for which, in assay [2], the zone of inhibition at 10 µg/disc was determined as 2 mm.
`CC(=O)O[C@@H]1C[C@H]2[C@@H]([C@H](O)C=C3C[C@@H](O)CC[C@@]32C)[C@@H]2CC[C@H]([C@H](C)[C@H]3C[C@]3(C)[C@H](C)C(C)C)[C@@]12C`: the zone of inhibition at 20 µg/disc worked out at 2 mm in assay [5] and 1 mm in assay [6].
